Laboratory results: US8192962B2, “Processes for detecting toxic substances” (Daikin Industries, Ltd., priority 2001, dated 2012)

System: Mitochondria-located protein genes
Assay: DNA chip mRNA expression in yeast, mitochondria-located protein genes (Table 2)
Assay type: cell-based, Saccharomyces cerevisiae S288C
Settings: cells incubated two hours with the chemical substance
Summary of the method: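 Chemical exposure: 2 h, log-phase S. cerevisiae S288C, YPD, 25° C., dose set to inhibit growth without death. Profiling: mRNA labeled by reverse transcription with Cy3- or Cy5-dUTP, hybridized to whole-genome array. Output: fluorescence ratio against untreated culture.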

[Cl][Hg][Cl] [(3), HgCl2]
The level of expressed mRNA in the presence of chemical substance/The level of expressed mRNA in the absence of chemical substance (yeast gene YJR121W): 3.3 | The level of expressed mRNA in the presence of chemical substance/The level of expressed mRNA in the absence of chemical substance (yeast gene YKL003C): 0.8 | The level of expressed mRNA in the presence of chemical substance/The level of expressed mRNA in the absence of chemical substance (yeast gene YKL016C): 0.7 | The level of expressed mRNA in the presence of chemical substance/The level of expressed mRNA in the absence of chemical substance (yeast gene YKL141W): 4.7 | The level of expressed mRNA in the presence of chemical substance/The level of expressed mRNA in the absence of chemical substance (yeast gene YKL142W): 3.1 | The level of expressed mRNA in the presence of chemical substance/The level of expressed mRNA in the absence of chemical substance (yeast gene YKL148C): 3.7 | The level of expressed mRNA in the presence of chemical substance/The level of expressed mRNA in the absence of chemical substance (yeast gene YKL170W): 0.5 | The level of expressed mRNA in the presence of chemical substance/The level of expressed mRNA in the absence of chemical substance (yeast gene YKL194C): 0.8 | The level of expressed mRNA in the presence of chemical substance/The level of expressed mRNA in the absence of chemical substance (yeast gene YKR066C): 5.5 | The level of expressed mRNA in the presence of chemical substance/The level of expressed mRNA in the absence of chemical substance (yeast gene YLL041C): 4.6 | The level of expressed mRNA in the presence of chemical substance/The level of expressed mRNA in the absence of chemical substance (yeast gene YLR038C): 0.6 | The level of expressed mRNA in the presence of chemical substance/The level of expressed mRNA in the absence of chemical substance (yeast gene YLR259C): 3.1 | The level of expressed mRNA in the presence of chemical substance/The level of expressed mRNA in the absence of chemical substance (yeast gene YLR295C): 1.1 | The level of expressed mRNA in the presence of chemical substance/The level of expressed mRNA in the absence of chemical substance (yeast gene YLR304C): 5.0 | The level of expressed mRNA in the presence of chemical substance/The level of expressed mRNA in the absence of chemical substance (yeast gene YLR348C): 1.2 | The level of expressed mRNA in the presence of chemical substance/The level of expressed mRNA in the absence of chemical substance (yeast gene YLR395C): 2.2 | The level of expressed mRNA in the presence of chemical substance/The level of expressed mRNA in the absence of chemical substance (yeast gene YML054C): 1.3 | The level of expressed mRNA in the presence of chemical substance/The level of expressed mRNA in the absence of chemical substance (yeast gene YML120C): 1.9 | The level of expressed mRNA in the presence of chemical substance/The level of expressed mRNA in the absence of chemical substance (yeast gene YML129C): 0.9 | The level of expressed mRNA in the presence of chemical substance/The level of expressed mRNA in the absence of chemical substance (yeast gene YMR023C): 0.5 | The level of expressed mRNA in the presence of chemical substance/The level of expressed mRNA in the absence of chemical substance (yeast gene YMR035W): 1.5 | The level of expressed mRNA in the presence of chemical substance/The level of expressed mRNA in the absence of chemical substance (yeast gene YMR083W): 2.6 | The level of expressed mRNA in the presence of chemical substance/The level of expressed mRNA in the absence of chemical substance (yeast gene YMR089C): 0.9 | The level of expressed mRNA in the presence of chemical substance/The level of expressed mRNA in the absence of chemical substance (yeast gene YMR152W): 1.8 | The level of expressed mRNA in the presence of chemical substance/The level of expressed mRNA in the absence of chemical substance (yeast gene YMR203W): 3.0 | The level of expressed mRNA in the presence of chemical substance/The level of expressed mRNA in the absence of chemical substance (yeast gene YMR267W): 0.7 | The level of expressed mRNA in the presence of chemical substance/The level of expressed mRNA in the absence of chemical substance (yeast gene YNL055C): 5.5 | The level of expressed mRNA in the presence of chemical substance/The level of expressed mRNA in the absence of chemical substance (yeast gene YNL071W): 1.7 | The level of expressed mRNA in the presence of chemical substance/The level of expressed mRNA in the absence of chemical substance (yeast gene YNL073W): 0.9 | The level of expressed mRNA in the presence of chemical substance/The level of expressed mRNA in the absence of chemical substance (yeast gene YNL104C): 3.0 | The level of expressed mRNA in the presence of chemical substance/The level of expressed mRNA in the absence of chemical substance (yeast gene YNL256W): 0.6 | The level of expressed mRNA in the presence of chemical substance/The level of expressed mRNA in the absence of chemical substance (yeast gene YOL096C): 1.2 | The level of expressed mRNA in the presence of chemical substance/The level of expressed mRNA in the absence of chemical substance (yeast gene YOR020C): 1.7 | The level of expressed mRNA in the presence of chemical substance/The level of expressed mRNA in the absence of chemical substance (yeast gene YOR037W): 0.6 | The level of expressed mRNA in the presence of chemical substance/The level of expressed mRNA in the absence of chemical substance (yeast gene YOR100C): 1.6 | The level of expressed mRNA in the presence of chemical substance/The level of expressed mRNA in the absence of chemical substance (yeast gene YOR130C): 1.4 | The level of expressed mRNA in the presence of chemical substance/The level of expressed mRNA in the absence of chemical substance (yeast gene YOR142W): 3.4 | The level of expressed mRNA in the presence of chemical substance/The level of expressed mRNA in the absence of chemical substance (yeast gene YOR150W): 1.0 | The level of expressed mRNA in the presence of chemical substance/The level of expressed mRNA in the absence of chemical substance (yeast gene YOR176W): 2.7 | The level of expressed mRNA in the presence of chemical substance/The level of expressed mRNA in the absence of chemical substance (yeast gene YOR187W): 1.9 | The level of expressed mRNA in the presence of chemical substance/The level of expressed mRNA in the absence of chemical substance (yeast gene YOR316C): 1.5 | The level of expressed mRNA in the presence of chemical substance/The level of expressed mRNA in the absence of chemical substance (yeast gene YPL040C): 0.8 | The level of expressed mRNA in the presence of chemical substance/The level of expressed mRNA in the absence of chemical substance (yeast gene YPL134C): 1.6 | The level of expressed mRNA in the presence of chemical substance/The level of expressed mRNA in the absence of chemical substance (yeast gene YPL135W): 2.5 | The level of expressed mRNA in the presence of chemical substance/The level of expressed mRNA in the absence of chemical substance (yeast gene YPL215W): 1.0 | The level of expressed mRNA in the presence of chemical substance/The level of expressed mRNA in the absence of chemical substance (yeast gene YPL262W): 3.8 | The level of expressed mRNA in the presence of chemical substance/The level of expressed mRNA in the absence of chemical substance (yeast gene YPR024W): 1.3 | The level of expressed mRNA in the presence of chemical substance/The level of expressed mRNA in the absence of chemical substance (yeast gene YPR037C): 1.6 | The level of expressed mRNA in the presence of chemical substance/The level of expressed mRNA in the absence of chemical substance (yeast gene YPR047W): 0.9 | The level of expressed mRNA in the presence of chemical substance/The level of expressed mRNA in the absence of chemical substance (yeast gene YPR134W): 0.8
